Results reported in patent US8022091B2, “Triazole derivative” (Taisho Pharmaceutical Co., Ltd., priority 2006, dated 2011).

Tests used:
human Edg-1 (S1P1) = target: T1, human Edg-1 (S1P1) (Homo sapiens, UniProt P21453); assay: S1P1 binding assay: inhibition of [33P]-S1P binding to membrane fraction of HEK-293 cells transferred with the human Edg-1 (S1P1) gene; details: for IC50: [33P]-S1P 0.1 nM, human Edg-1 (S1P1) HEK-293 membrane fraction, 1 h at 30° C., read-out: IC50 (concentration at which binding in the absence of the test compound was inhibited by 50%)
T1 construct: expressed in transfected cells; host or cells: HEK-293
T1 sequence (P21453 whole entry): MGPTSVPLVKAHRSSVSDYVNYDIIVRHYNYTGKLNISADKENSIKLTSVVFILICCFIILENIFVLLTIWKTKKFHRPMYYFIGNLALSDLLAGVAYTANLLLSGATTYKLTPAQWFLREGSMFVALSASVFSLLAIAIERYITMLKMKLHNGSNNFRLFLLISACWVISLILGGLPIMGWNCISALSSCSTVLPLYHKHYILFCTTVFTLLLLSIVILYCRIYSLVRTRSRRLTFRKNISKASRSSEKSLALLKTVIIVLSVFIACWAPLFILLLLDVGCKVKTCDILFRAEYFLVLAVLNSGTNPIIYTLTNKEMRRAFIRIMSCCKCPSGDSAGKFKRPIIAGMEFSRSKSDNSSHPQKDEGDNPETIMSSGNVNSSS
In short: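 With 0.1 nM [33P]-S1P and compound (10^−5M single point, or a concentration range for IC50) in 0.1% DMSO, membrane fractions from human Edg-1-expressing HEK-293 cells were treated for one hour at 30° C in 20 mM Tris-HCl pH 7.4 with NaF, deoxypyridoxine and BSA. Bound label was measured after filtration, with untransfected-cell background subtracted.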

[1] = test compound at 10 μM, inhibition of [33P]-S1P binding to the membrane fraction of HEK-293 cells expressing human Edg-1 (S1P1)
[2] = test compound 10 μM, inhibition of [33P]-S1P binding, membrane fraction

Compound | IC50 (human Edg-1 (S1P1)) | inhibition at 10 µM (human Edg-1 (S1P1); [1]) | melting point | Binding assay (membrane) % inhibition (10 μM) (human Edg-1 (S1P1); [1]) | inhibition at 10 µM (human Edg-1 (S1P1); [2]) | Binding assay (membrane) % inhibition (10 μM) (human Edg-1 (S1P1); [2])
C[C@@H](NS(=O)(=O)c1ccc(Cl)c(Cl)c1)c1nnc(Oc2ccc3cc[nH]c3c2)n1C1CC1 [Compound 125] | ≤ 35 nM | 94.3% | 253.5 to 254.5 °C | – | – | –
CCn1c(Oc2ccc3c(c2)CCC(=O)N3)nnc1[C@@H](C)NS(=O)(=O)c1ccc(Cl)c(Cl)c1 [Compound 68] | – | 101% | 212 to 223 °C | – | – | –
CCn1c(Oc2ccc3cc[nH]c3c2)nnc1[C@@H](C)NS(=O)(=O)c1cc(C)c(Cl)cc1Cl [Compound 131] | ≤ 35 nM | 97.3% | 102 to 110.5 °C | – | – | –
CCn1c(Sc2ccccc2)nnc1[C@@H](Cc1ccccc1)NS(=O)(=O)c1ccc(Cl)c(Cl)c1 [Compound 2] | – | 103% | 134 to 138 °C | 97.8% | – | –
CCn1c(Oc2ccc(F)cc2)nnc1[C@@H](C)NS(=O)(=O)c1ccc(C)c(C)c1 [Compound 126] | – | 91.8% | 176.5 to 178 °C | – | – | –
CCn1c(Oc2ccc3c(c2)NC(=O)CC3)nnc1[C@@H](C)NS(=O)(=O)c1ccc(Cl)c(Cl)c1 [Compound 74] | 15 nM | 105% | 218.5 to 227 °C | – | – | –
CCn1c(Oc2cc(OC)cc(OC)c2)nnc1[C@@H](C)NS(=O)(=O)c1ccc(Cl)c(Cl)c1 [Compound 20] | – | 97.4% | 118 to 120 °C | – | – | –
CCn1c(Oc2cccc(N3CCN(C)CC3)c2)nnc1[C@@H](C)NS(=O)(=O)c1ccc2cccc(Cl)c2c1 [Compound 666] | ≤ 10 nM | – | 143.5 to 144.5 °C | – | 97.9% | –
CCn1c(Oc2ccc(N3CCCCC3)cc2)nnc1[C@@H](C)NS(=O)(=O)c1ccc(Cl)c(Cl)c1 [Compound 48] | – | 96.7% | 195.5 to 196.5 °C | – | – | –
CCn1c(Oc2ccc(F)cc2)nnc1C1(NS(=O)(=O)c2ccc(Cl)c(Cl)c2)CC1 [Compound 685] | – | – | 255 to 260 °C | – | 65.1% | –
CCn1c(Oc2ccc3cc[nH]c3c2)nnc1[C@@H](C)NS(=O)(=O)c1ccc(Cl)c(Cl)c1Cl [Compound 134] | ≤ 35 nM | 101% | 108.5 to 114.5 °C | – | – | –
CCn1c(Oc2cccc(N3CCN(C)CC3)c2)nnc1[C@@H](C)NS(=O)(=O)c1ccc(Br)c(C)c1 [Compound 111] | ≤ 10 nM | 109% | 204 to 205 °C | – | – | –
CCn1c(Oc2cccc(N3CCN(C)CC3)c2)nnc1[C@@H](C)NS(=O)(=O)c1ccc2c(I)cccc2c1 [Compound 691] | 2.6 nM | – | 180 to 182 °C | – | – | 98.5%
CCn1c(Oc2cc3nc(C)cc(C)n3n2)nnc1[C@@H](C)NS(=O)(=O)c1ccc(Cl)c(Cl)c1 [Compound 96] | – | 78.7% | 191 to 194 °C | – | – | –
CCn1c(Oc2cc(OC)c(OC)c(OC)c2)nnc1[C@@H](C)NS(=O)(=O)c1ccc(Cl)c(Cl)c1 [Compound 17] | – | 95.4% | 129.5 to 131.5 °C | – | – | –
CCn1c(Oc2ccc3cc[nH]c3c2)nnc1[C@@H](C)NS(=O)(=O)c1ccc(C)c(C)c1 [Compound 129] | 20 nM | 96.8% | 96 to 104 °C | – | – | –
CCn1c(Oc2cccc(N3CCN(C(C)C)CC3)c2)nnc1[C@@H](C)NS(=O)(=O)c1ccc(Cl)c(Cl)c1 [Compound 94] | ≤ 10 nM | 106% | 190 to 192 °C | – | – | –

Further lines, results first:

IC50 (human Edg-1 (S1P1)) | inhibition at 10 µM (human Edg-1 (S1P1); [1]) | melting point | Binding assay (membrane) % inhibition (10 μM) (human Edg-1 (S1P1); [1]) | inhibition at 10 µM (human Edg-1 (S1P1); [2]) | Binding assay (membrane) % inhibition (10 μM) (human Edg-1 (S1P1); [2]) | Compound
8.9 nM | 98.5% | 155 to 160 °C | – | – | – | CCn1c(Oc2ccc(OC)cc2)nnc1[C@@H](C)NS(=O)(=O)c1ccc(Cl)c(Cl)c1 [Compound 11]
– | 98.2% | 180 to 190 °C | – | – | – | CCn1c(Oc2ccccc2Cl)nnc1[C@@H](C)NS(=O)(=O)c1ccc(Cl)c(Cl)c1 [Compound 6]
6.4 nM | 99.5% | 161 to 162.5 °C | – | – | – | CCn1c(Oc2ccc(C)c(C)c2)nnc1[C@@H](C)NS(=O)(=O)c1ccc(Cl)c(Cl)c1 [Compound 14]
– | 94.5% | 185 to 186 °C | – | – | – | CCn1c(Oc2cccc(O)c2)nnc1[C@@H](C)NS(=O)(=O)c1ccc(Cl)c(Cl)c1 [Compound 114, 3,4-Dichloro-N-[(R)-1-[4-ethyl-5-(3-hydroxyphenoxy)-4H-[1,2,4]triazol-3-yl]-ethyl]-benzenesulfonamide]
≤ 10 nM | 101% | 172.5 to 173 °C | – | – | – | CCc1ccc(Oc2nnc([C@@H](C)NS(=O)(=O)c3ccc(Cl)c(Cl)c3)n2CC)cc1 [Compound 24]
– | 92.1% | 118 to 120 °C | – | – | – | CCNC(=O)Nc1cccc(Oc2nnc([C@@H](C)NS(=O)(=O)c3ccc(Cl)c(Cl)c3)n2CC)c1 [Compound 92, 3,4-Dichloro-N-((R)-1-[4-ethyl-5-[3-(3-ethylureido)-phenoxy]-4H-[1,2,4]triazol-3-yl]-ethyl)-benzenesulfonamide]
– | 99.9% | 148.5 to 150.5 °C | – | – | – | CCn1c(Oc2ccc(C)nc2)nnc1[C@@H](C)NS(=O)(=O)c1ccc(Cl)c(Cl)c1 [Compound 51]
≤ 35 nM | 96.7% | 173 to 176 °C | – | – | – | CCn1c(Oc2ccc(OCc3ccccc3)cc2)nnc1[C@@H](C)NS(=O)(=O)c1ccc(Cl)c(Cl)c1 [Compound 23]
≤ 10 nM | 101% | 174 to 177 °C | – | – | – | CCn1c(Oc2ccc(Cl)cc2)nnc1[C@@H](C)NS(=O)(=O)c1ccc2c(Cl)cccc2c1 [Compound 139]
– | 93.4% | 183 to 190 °C | – | – | – | CCn1c(Oc2cc(C)ccn2)nnc1[C@@H](C)NS(=O)(=O)c1ccc(Cl)c(Cl)c1 [Compound 66]
≤ 35 nM | 81.9% | 167 to 170 °C | – | – | – | CCn1c(Oc2ccc(F)cc2)nnc1[C@@H](C)NS(=O)(=O)c1ccc2ccccc2c1 [Compound 122]
≤ 35 nM | 101% | 125 to 127 °C | – | – | – | CCn1c(Oc2ccc(OC)c(OC)c2)nnc1[C@@H](C)NS(=O)(=O)c1ccc(Cl)c(Cl)c1 [Compound 16]
≤ 10 nM | 96.5% | 144 to 146 °C | – | – | – | CCN(CC)c1cccc(Oc2nnc([C@@H](C)NS(=O)(=O)c3ccc(Cl)c(Cl)c3)n2CC)c1 [Compound 70]
14 nM | 95.4% | 163 to 167.5 °C | – | – | – | CCn1c(Oc2ccc(Oc3ccccc3)cc2)nnc1[C@@H](C)NS(=O)(=O)c1ccc(Cl)c(Cl)c1 [Compound 22]
– | 92% | 166 to 170 °C | – | – | – | CCn1c(Oc2cccc3ccccc23)nnc1[C@@H](C)NS(=O)(=O)c1ccc(Cl)c(Cl)c1 [Compound 41]
– | 74.2% | 183 to 185 °C | – | – | – | CCn1c(Oc2cccc(C(=O)O)c2)nnc1[C@@H](C)NS(=O)(=O)c1ccc(Cl)c(Cl)c1 [Compound 113, 3-[5-[(R)-1-(3,4-Dichlorobenzenesulfonylamino)-ethyl]-4-ethyl-4H-[1,2,4]triazol-3-yloxy]-benzoic acid]
≤ 10 nM | – | 175 to 178 °C | – | 100% | – | CCn1c(Oc2cccc(N3CCNCC3)c2)nnc1[C@@H](C)NS(=O)(=O)c1ccc(Cl)c(Cl)c1 [Compound 683, 3,4-Dichloro-N-[(R)-1-[4-ethyl-5-(3-piperazin-1-yl-phenoxy)-4H-[1,2,4]triazol-3-yl]-ethyl]-benzenesulfonamide]
≤ 10 nM | 98.5% | 176 to 178 °C | – | – | – | CCn1c(Oc2ccc(C(C)C)cc2)nnc1[C@@H](C)NS(=O)(=O)c1ccc(Cl)c(Cl)c1 [Compound 39]
– | 99% | 168 to 170 °C | – | – | – | CCn1c(Oc2cccc(NC=O)c2)nnc1[C@@H](C)NS(=O)(=O)c1ccc(Cl)c(Cl)c1 [Compound 90, 3,4-Dichloro-N-[(R)-1-[4-ethyl-5-(3-formylamino-phenoxy)-4H-[1,2,4]triazol-3-yl]-ethyl]-benzenesulfonamide]
22 nM | 102% | 176.5 to 179.5 °C | – | – | – | CCn1c(Oc2ccc3ccccc3c2)nnc1[C@@H](C)NS(=O)(=O)c1ccc(Cl)c(Cl)c1 [Compound 42]
5.2 nM | – | 214.5 to 218 °C | – | 101% | – | CCn1c(Oc2ccc3cc[nH]c3c2)nnc1[C@@H](C)NS(=O)(=O)c1ccc2cccc(Cl)c2c1 [Compound 670]
– | 92.4% | 205 to 208.5 °C | – | – | – | CCn1c(Oc2cc(C)cc(C)n2)nnc1[C@@H](C)NS(=O)(=O)c1ccc(Cl)c(Cl)c1 [Compound 95]
2.2 nM | 103% | 185 to 187 °C | – | – | – | CCn1c(Oc2cccc(N3CCCCC3)c2)nnc1[C@@H](C)NS(=O)(=O)c1ccc(Cl)c(Cl)c1 [Compound 73]
– | 93.2% | 160 to 165 °C | – | – | – | CCn1c(Oc2ccc3c(c2)N=S=N3)nnc1[C@@H](C)NS(=O)(=O)c1ccc(Cl)c(Cl)c1 [Compound 81]
– | 99.3% | 126 to 135 °C | – | – | – | CCn1c(Oc2cccc(C)n2)nnc1[C@@H](C)NS(=O)(=O)c1ccc(Cl)c(Cl)c1 [Compound 71]
2.9 nM | 98.9% | 107 to 114 °C | – | – | – | CCn1c(Oc2ccc3cc[nH]c3c2)nnc1[C@@H](C)NS(=O)(=O)c1ccc2ccccc2c1 [Compound 130]
